Experimental data from publication PMC10878397, “Development of Potent Dual BET/HDAC Inhibitors via Pharmacophore Merging and Structure-Guided Optimization” (ACS Chemical Biology, 2024).

How the values were obtained:
Experiment in all cases: HDAC selectivity profile (Reaction Biology)
Format in all cases: biochemical
HDAC4 = target: T1, HDAC4 (Homo sapiens, UniProt P56524); conditions: no inhibitor control as 100%, read-out: % Enzyme activity HDAC4
T1 construct: purchased Reaction Biology
Procedure: (§1) The reactions were performed by Reaction Biology using a protease-coupled assay with fluorogenic substrates where, after deacetylation by the HDAC and subsequent proteolytic digest, the free fluorophore 7-amino-4-methyl coumarin (AMC) can be quantified.[60] The following substrates were used for activity assays: HDACs 1, 2, 3, and 6: fluorogenic tetrapeptide from p53 residues 379–382 (RHKK(Ac) AMC); HDACs 4, 5, 7, 9, and 11: fluorogenic HDAC class2a substrate (trifluoroacetyl lysine); HDAC8: twice acetylated fluorogenic tetrapeptide from p53 residues 379–382 (RHK(Ac) K(Ac) AMC); HDAC10: Ac-spermidine-AMC. Data are given as % residual activity compared with the uninhibited control reaction.

HDAC11 = target: T2, HDAC11 (Homo sapiens, UniProt Q96DB2); conditions: no inhibitor control as 100%
T2 construct: purchased Reaction Biology
T2 sequence (Q96DB2 1-347): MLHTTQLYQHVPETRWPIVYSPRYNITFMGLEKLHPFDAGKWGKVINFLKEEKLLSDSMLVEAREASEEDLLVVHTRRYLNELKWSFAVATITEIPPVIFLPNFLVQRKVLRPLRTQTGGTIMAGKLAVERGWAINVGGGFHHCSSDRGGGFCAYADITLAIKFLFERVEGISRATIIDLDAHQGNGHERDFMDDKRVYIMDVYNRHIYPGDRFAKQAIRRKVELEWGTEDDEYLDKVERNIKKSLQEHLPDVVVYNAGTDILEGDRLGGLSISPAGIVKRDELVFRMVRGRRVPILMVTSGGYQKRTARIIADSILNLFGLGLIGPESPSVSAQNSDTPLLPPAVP
Procedure: as §1

HDAC6 = target: T3, HDAC6 (Homo sapiens, UniProt Q9UBN7); conditions: no inhibitor control as 100%, read-out: % Enzyme activity HDAC6
T3 construct: purchased Reaction Biology
T3 sequence (Q9UBN7 whole entry): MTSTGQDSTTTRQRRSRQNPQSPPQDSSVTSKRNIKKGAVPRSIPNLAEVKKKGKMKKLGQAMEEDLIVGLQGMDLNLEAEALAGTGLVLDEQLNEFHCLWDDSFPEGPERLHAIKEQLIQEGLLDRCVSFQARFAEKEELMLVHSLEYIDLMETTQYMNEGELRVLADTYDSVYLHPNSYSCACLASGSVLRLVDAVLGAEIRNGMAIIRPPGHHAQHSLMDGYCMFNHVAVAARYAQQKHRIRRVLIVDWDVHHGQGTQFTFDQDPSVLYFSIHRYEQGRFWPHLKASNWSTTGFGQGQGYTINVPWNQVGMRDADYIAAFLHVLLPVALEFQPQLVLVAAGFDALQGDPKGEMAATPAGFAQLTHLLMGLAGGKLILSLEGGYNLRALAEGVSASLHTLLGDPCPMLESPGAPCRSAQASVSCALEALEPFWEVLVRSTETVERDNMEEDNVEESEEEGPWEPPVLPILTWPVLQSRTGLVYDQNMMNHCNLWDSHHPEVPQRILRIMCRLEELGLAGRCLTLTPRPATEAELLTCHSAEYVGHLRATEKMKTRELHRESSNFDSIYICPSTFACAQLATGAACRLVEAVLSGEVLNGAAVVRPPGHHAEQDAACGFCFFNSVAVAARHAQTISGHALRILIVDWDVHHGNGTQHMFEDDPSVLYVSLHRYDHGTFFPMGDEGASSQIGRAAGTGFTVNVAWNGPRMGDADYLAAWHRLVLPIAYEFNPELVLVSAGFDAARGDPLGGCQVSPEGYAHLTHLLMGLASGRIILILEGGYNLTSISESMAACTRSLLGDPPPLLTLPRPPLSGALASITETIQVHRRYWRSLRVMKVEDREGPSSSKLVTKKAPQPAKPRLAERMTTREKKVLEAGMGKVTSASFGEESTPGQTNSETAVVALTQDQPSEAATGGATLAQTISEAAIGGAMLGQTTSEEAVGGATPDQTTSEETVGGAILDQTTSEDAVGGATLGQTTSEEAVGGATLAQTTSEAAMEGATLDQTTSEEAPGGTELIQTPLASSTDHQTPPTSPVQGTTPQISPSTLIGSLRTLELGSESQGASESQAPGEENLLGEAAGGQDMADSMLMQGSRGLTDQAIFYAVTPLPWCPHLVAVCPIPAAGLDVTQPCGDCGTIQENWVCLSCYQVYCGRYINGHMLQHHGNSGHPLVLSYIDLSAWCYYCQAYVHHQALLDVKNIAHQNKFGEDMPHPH
Procedure: as §1

T1 sequence (P56524 whole entry): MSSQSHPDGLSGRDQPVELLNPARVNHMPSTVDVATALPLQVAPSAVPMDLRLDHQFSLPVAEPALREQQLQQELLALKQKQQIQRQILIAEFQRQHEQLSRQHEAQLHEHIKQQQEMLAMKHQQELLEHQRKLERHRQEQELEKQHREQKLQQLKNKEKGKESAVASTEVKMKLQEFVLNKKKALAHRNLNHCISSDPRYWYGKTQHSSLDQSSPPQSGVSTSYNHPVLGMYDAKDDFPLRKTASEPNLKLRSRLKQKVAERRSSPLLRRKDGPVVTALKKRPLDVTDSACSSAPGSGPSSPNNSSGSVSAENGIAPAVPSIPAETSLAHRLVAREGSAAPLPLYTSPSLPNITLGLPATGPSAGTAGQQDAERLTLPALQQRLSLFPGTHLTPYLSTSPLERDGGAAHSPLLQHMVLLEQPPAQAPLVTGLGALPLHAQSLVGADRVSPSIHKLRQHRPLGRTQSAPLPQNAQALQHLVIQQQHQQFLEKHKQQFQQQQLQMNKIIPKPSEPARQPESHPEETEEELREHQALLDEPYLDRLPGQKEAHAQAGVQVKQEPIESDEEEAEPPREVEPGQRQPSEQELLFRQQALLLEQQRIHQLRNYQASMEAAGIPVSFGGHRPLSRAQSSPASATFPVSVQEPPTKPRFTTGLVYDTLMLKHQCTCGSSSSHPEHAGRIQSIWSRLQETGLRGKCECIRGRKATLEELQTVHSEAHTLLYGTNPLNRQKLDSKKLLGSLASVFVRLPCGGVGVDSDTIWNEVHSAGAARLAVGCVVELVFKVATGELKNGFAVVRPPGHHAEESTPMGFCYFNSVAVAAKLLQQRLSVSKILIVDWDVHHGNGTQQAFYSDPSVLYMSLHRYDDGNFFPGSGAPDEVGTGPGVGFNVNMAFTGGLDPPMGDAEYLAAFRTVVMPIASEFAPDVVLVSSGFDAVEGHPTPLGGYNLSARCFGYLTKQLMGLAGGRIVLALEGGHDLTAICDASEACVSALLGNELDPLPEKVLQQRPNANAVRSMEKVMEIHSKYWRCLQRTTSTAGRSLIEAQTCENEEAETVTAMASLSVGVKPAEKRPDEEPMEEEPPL

Molecule Cn1cc(-c2ccc(C(=O)Nc3cc(-c4ccccc4)ccc3N)nc2)c2cc[nH]c2c1=O [NB512] has a remaining activity at 1 µM (HDAC4; 1 µM NB512) of 91.5%, a remaining activity at 10 µM (HDAC4; 10 µM NB512) of 82.4% and a remaining activity at 1 µM (HDAC11; 1 µM NB512, read-out: % Enzyme activity HDAC11) of 97.7%. For the same molecule, the “% Enzyme activity HDAC11” value (HDAC11; 10 µM NB512) was 60%, the remaining activity at 10 µM (HDAC11; 10 µM NB512, read-out: % Enzyme activity HDAC11) was 59.9% and the remaining activity at 1 µM (HDAC6; 1 µM NB512) was 100%. The remaining activity at 10 µM (HDAC6; 10 µM NB512) was 90.2%.
